Assay [1] can be described thus: Inhibition of PKA at 1 uM incubated for 30 mins prior to substrate addition study done at apparent ATP Km for enzyme.
For assay [2], the target named is Tyrosine-protein kinase Lyn (Homo sapiens, UniProt P07948). Briefly: Inhibition of LYN at 1 uM incubated for 30 mins prior to substrate addition study done at apparent ATP Km for enzyme.
Assay [3] concerns the target Glycogen synthase kinase-3 beta (Homo sapiens, UniProt P49841). The experiment in a line: Inhibition of GSK3beta at 1 uM incubated for 30 mins prior to substrate addition study done at apparent ATP Km for enzyme.
Assay [4] has as its target Serine/threonine-protein kinase D2 (Homo sapiens) (UniProt Q9BZL6). The experiment in a line: Inhibition of PKD2 at 1 uM incubated for 30 mins prior to substrate addition study done at apparent ATP Km for enzyme.
For assay [5], the target named is Tyrosine-protein kinase Lck (Homo sapiens, UniProt P06239). The experiment in a line: Inhibition of LCK incubated for 30 mins prior to substrate addition study done at apparent ATP Km for enzyme.
Chain of Tyrosine-protein kinase Lck (P06239 whole entry): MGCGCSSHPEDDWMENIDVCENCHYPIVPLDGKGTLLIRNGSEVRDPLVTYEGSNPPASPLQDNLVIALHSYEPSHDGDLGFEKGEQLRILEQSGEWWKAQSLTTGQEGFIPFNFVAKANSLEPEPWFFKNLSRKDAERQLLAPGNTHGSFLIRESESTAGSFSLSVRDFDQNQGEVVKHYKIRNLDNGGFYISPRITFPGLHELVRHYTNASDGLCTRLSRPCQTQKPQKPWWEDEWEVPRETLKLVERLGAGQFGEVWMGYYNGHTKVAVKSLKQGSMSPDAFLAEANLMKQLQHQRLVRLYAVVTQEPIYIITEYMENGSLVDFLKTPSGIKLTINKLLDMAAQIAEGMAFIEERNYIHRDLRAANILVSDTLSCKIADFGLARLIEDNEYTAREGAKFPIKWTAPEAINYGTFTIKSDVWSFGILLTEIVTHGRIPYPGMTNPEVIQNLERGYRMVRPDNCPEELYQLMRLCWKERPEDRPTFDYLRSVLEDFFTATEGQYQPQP
In assay [6] the target is Serine/threonine-protein kinase Chk2 (Homo sapiens, UniProt O96017). The experiment in a line: Inhibition of CHK2 incubated for 30 mins prior to substrate addition study done at apparent ATP Km for enzyme.
For assay [7], the target named is Serine/threonine-protein kinase PLK1 (Homo sapiens, UniProt P53350). Briefly: Inhibition of Plk1 using 5-FAMRRRAGALMDASFEEQ- CONH2 as substrate after 75 mins by caliper method.
Another assay concerns HeLa. The experiment in a line: Growth inhibition of human HeLa cells after 92 hrs by CellTiter-Blue assay. The class given is functional. In general terms: Resazurin is reduced to fluorescent resorufin, in cell work by metabolically active cells.
Assay [8] addresses Proto-oncogene tyrosine-protein kinase Src (Homo sapiens, UniProt P12931). To be noted: 1 uM.
The target of assay [9] is MAP kinase-activated protein kinase 2 (Homo sapiens) (UniProt P49137). Briefly: Inhibition of MAPKAPK2 at 1 uM incubated for 30 mins prior to substrate addition study done at apparent ATP Km for enzyme.
Chain of MAP kinase-activated protein kinase 2 (Homo sapiens) (P49137 whole entry, looked up): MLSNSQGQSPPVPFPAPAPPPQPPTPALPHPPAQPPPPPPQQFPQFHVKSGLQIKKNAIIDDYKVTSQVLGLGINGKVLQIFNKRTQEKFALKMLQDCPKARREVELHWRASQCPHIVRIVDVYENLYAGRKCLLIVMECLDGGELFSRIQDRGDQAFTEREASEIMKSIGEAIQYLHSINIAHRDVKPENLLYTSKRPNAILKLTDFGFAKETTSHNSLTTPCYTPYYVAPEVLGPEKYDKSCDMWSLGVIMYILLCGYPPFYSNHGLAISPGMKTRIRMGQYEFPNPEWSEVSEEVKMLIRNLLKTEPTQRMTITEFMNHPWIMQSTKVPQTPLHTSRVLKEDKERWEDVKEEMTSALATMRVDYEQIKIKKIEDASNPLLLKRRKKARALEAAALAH
The target of assay [10] is RAC-alpha serine/threonine-protein kinase (Homo sapiens) (UniProt P31749). Briefly: Inhibition of AKT1 at 1 uM incubated for 30 mins prior to substrate addition study done at apparent ATP Km for enzyme.
Chain of RAC-alpha serine/threonine-protein kinase (Homo sapiens) (P31749 whole entry): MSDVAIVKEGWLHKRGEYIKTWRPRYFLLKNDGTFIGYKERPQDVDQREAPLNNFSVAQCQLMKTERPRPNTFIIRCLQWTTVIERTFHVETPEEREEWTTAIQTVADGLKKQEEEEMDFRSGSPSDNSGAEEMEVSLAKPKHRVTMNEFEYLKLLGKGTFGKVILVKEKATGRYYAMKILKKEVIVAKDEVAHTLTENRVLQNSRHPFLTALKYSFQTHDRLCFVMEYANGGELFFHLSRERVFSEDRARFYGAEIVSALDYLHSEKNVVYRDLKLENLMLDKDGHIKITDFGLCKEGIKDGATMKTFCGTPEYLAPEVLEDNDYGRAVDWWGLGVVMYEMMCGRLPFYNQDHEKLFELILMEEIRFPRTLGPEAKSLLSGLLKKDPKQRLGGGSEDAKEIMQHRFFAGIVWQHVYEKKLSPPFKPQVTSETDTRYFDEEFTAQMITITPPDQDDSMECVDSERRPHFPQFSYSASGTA
Assay [11] concerns the target Hepatocyte growth factor receptor (Homo sapiens, UniProt P08581). As to conditions: 1 uM.
For assay [12], the target named is T1, Serine/threonine-protein kinase Nek2 (Homo sapiens, UniProt P51955).
T1 sequence (P51955 whole entry): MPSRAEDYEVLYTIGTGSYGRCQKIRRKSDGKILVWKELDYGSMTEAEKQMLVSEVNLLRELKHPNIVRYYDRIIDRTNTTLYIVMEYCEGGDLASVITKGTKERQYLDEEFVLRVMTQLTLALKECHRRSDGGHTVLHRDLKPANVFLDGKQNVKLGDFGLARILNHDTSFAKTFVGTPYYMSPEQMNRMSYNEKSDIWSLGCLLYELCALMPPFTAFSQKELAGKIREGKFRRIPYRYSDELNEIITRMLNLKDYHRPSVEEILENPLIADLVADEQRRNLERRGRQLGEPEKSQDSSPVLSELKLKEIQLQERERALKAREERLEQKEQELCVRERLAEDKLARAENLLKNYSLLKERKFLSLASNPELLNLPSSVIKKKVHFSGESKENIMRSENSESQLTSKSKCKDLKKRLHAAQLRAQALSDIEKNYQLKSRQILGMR
Description: Inhibition of Nek2-mediated C-Nap1 phosphorylation in human U2OS cells after 3 hrs by immunofluorescence microscopy

The target of assay [13] is T2, Dual specificity protein kinase TTK (Homo sapiens, UniProt P33981).
T2 sequence (P33981 whole entry): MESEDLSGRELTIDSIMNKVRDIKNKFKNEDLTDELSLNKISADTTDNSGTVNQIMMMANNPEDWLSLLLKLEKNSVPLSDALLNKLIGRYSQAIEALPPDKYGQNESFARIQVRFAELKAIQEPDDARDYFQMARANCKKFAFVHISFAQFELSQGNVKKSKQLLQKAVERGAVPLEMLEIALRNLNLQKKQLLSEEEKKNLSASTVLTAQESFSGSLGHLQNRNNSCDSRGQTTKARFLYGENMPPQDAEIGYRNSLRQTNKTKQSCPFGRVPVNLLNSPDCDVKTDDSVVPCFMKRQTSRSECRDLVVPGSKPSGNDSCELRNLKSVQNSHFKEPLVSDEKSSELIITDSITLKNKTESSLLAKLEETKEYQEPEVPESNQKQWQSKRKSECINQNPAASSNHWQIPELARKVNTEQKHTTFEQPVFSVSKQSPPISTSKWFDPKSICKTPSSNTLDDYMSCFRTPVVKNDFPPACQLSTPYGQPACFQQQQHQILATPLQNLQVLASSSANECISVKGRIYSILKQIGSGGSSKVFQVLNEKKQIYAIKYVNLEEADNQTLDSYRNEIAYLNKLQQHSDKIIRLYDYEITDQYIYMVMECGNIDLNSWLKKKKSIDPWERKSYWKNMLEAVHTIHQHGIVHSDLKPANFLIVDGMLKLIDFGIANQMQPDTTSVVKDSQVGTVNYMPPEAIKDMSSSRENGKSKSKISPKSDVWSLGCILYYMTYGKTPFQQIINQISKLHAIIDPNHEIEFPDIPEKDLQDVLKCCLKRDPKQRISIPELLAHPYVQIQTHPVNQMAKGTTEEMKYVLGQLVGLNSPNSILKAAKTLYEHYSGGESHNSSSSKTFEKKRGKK
The experiment in a line: Inhibition of MPS1 by caliper method.

The target of assay [14] is Serine/threonine-protein kinase Chk1 (Homo sapiens) (UniProt O14757). Briefly: Inhibition of CHK1 at 1 uM incubated for 30 mins prior to substrate addition study done at apparent ATP Km for enzyme.
Chain of Serine/threonine-protein kinase Chk1 (Homo sapiens) (O14757 whole entry): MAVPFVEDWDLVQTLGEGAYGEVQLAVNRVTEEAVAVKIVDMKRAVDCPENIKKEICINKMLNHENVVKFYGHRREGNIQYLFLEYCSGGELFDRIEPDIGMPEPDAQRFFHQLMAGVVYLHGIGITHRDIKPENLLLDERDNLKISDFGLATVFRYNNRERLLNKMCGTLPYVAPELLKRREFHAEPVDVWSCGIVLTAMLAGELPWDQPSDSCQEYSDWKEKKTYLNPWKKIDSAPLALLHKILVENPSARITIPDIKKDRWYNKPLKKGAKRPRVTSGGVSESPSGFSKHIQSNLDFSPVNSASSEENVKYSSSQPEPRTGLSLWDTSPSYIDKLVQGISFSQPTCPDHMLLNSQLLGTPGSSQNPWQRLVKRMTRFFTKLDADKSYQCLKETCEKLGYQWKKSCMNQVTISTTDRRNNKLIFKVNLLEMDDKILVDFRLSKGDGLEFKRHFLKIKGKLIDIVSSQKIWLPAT
For another assay, the system named is MDA-MB-231. The experiment in a line: Growth inhibition of human MDA-MB-231 cells after 92 hrs by CellTiter-Blue assay. The class given is functional. To be noted: MDA-MB-231, 92 h.
The target in assay [15] is Mitogen-activated protein kinase 1 (Homo sapiens) (UniProt P28482). The experiment in a line: Inhibition of Erk2 at 1 uM incubated for 30 mins prior to substrate addition study done at apparent ATP Km for enzyme.
Chain of Mitogen-activated protein kinase 1 (Homo sapiens) (P28482 whole entry): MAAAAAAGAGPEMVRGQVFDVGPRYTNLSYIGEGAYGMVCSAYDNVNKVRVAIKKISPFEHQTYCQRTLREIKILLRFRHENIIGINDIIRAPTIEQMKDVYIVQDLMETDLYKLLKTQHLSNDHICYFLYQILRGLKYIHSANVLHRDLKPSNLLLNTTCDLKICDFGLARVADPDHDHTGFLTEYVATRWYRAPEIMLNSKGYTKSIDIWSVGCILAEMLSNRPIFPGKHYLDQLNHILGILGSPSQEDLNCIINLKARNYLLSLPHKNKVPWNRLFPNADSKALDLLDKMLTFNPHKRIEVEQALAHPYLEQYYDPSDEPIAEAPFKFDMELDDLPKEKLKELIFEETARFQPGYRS
Assay [16] deals with RAC-beta serine/threonine-protein kinase (Homo sapiens) (UniProt P31751). Briefly: Inhibition of AKT2 at 1 uM incubated for 30 mins prior to substrate addition study done at apparent ATP Km for enzyme.
Chain of RAC-beta serine/threonine-protein kinase (Homo sapiens) (P31751 whole entry): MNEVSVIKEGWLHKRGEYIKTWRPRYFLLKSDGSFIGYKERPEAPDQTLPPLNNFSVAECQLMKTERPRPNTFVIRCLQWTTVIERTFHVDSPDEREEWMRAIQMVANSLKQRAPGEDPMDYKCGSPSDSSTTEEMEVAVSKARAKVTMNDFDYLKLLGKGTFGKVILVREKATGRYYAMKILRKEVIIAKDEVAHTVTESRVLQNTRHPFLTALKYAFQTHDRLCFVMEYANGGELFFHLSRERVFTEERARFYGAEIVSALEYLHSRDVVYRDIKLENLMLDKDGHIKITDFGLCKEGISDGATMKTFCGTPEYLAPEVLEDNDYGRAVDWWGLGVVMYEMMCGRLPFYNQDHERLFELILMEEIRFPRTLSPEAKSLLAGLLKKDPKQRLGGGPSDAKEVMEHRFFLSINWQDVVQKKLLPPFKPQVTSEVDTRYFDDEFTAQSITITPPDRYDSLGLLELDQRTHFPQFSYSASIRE
For assay [17], the target named is T3, Tyrosine-protein kinase Fyn (Homo sapiens, UniProt P06241). Briefly: Inhibition of FYN at 1 uM incubated for 30 mins prior to substrate addition study done at apparent ATP Km for enzyme.
For assay [18], the target named is T1, Serine/threonine-protein kinase Nek2. The source holds these as a separate data set.
In assay [19] the target is T3, Tyrosine-protein kinase Fyn. The experiment in a line: Inhibition of FYN incubated for 30 mins prior to substrate addition study done at apparent ATP Km for enzyme.
Target sequence in this assay (P06241 whole entry): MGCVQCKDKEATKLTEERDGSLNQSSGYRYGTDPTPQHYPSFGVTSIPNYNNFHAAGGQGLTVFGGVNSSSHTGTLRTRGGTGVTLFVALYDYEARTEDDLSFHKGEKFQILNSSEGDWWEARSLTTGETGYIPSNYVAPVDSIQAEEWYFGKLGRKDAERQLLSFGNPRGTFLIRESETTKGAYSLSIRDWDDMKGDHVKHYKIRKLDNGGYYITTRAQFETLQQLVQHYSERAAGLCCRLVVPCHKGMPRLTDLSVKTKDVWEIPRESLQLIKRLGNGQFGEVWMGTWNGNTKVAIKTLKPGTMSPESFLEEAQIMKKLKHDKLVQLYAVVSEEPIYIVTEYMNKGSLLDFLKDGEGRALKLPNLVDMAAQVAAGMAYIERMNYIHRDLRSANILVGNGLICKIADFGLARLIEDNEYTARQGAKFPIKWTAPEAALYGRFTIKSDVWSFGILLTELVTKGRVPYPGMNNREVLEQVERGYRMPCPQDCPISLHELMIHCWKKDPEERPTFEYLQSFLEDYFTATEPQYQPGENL
The next assay relates to MCF7. The experiment in a line: Growth inhibition of human MCF7 cells after 92 hrs by CellTiter-Blue assay. The class given is functional. To be noted: MCF7, 92 h.
In assay [20] the target is Ribosomal protein S6 kinase alpha-5 (Homo sapiens) (UniProt O75582). The experiment in a line: Inhibition of MSK1 at 1 uM incubated for 30 mins prior to substrate addition study done at apparent ATP Km for enzyme.
Chain of Ribosomal protein S6 kinase alpha-5 (Homo sapiens) (O75582 whole entry, looked up): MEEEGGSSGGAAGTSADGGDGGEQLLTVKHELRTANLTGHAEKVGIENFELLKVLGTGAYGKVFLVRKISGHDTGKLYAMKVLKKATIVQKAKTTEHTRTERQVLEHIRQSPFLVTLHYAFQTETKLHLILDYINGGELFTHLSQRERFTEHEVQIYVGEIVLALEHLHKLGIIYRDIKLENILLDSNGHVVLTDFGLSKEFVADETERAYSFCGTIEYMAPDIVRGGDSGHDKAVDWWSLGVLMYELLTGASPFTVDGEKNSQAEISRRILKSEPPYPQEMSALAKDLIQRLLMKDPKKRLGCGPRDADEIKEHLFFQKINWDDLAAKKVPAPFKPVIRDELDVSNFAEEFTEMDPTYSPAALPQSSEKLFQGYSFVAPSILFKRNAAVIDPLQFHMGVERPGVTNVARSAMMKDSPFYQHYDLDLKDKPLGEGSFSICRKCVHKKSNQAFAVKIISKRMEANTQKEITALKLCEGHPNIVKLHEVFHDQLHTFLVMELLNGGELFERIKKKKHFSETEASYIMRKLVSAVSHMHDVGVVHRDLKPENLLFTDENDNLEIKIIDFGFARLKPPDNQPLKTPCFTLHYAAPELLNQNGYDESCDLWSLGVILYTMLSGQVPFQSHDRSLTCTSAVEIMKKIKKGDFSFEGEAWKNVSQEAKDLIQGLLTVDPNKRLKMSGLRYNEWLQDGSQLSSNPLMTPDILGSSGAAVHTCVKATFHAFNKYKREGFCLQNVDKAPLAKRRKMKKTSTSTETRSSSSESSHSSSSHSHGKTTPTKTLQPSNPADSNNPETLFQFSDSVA
Assay [21] concerns the target Aurora kinase A (Homo sapiens) (UniProt O14965). To be noted: 1 uM.

A word on the inhibition: it is the percentage by which the read-out fell short of the control. In general, IC50 refers to the concentration at which inhibition is half-maximal. The term GI50 denotes the concentration at which growth is held to half of that of the control. Read a high GI50 as lower sensitivity of the cells.

Chain of Proto-oncogene tyrosine-protein kinase Src (P12931 2-536 limits assumed): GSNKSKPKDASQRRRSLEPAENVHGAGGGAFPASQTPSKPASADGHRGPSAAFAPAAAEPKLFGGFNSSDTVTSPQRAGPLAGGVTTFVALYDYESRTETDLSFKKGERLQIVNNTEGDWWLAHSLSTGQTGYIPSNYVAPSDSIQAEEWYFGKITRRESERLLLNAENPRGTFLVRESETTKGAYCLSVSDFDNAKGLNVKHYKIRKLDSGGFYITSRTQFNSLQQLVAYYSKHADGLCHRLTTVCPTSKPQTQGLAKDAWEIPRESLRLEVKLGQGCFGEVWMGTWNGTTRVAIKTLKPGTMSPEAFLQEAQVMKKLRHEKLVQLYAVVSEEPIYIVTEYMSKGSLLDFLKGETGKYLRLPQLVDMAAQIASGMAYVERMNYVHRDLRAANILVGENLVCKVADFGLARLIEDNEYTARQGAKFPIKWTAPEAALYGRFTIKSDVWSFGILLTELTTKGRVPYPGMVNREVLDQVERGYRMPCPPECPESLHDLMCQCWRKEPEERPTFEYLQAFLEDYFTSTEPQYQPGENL
Chain of Glycogen synthase kinase-3 beta (P49841 whole entry, looked up): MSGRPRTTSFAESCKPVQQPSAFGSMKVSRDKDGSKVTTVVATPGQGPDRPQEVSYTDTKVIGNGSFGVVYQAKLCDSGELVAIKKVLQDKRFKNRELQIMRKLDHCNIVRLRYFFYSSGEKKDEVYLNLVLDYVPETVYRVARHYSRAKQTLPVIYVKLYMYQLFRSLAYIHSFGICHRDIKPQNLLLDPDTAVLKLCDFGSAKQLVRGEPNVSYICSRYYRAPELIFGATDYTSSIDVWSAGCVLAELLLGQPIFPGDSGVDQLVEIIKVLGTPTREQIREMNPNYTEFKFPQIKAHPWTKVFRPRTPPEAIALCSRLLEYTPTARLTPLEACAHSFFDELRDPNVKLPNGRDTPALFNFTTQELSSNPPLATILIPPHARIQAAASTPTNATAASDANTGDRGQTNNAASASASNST

In the case of `C[C@H](/C=C\C(F)(F)F)Oc1cc(-c2cc(-c3cc(CN(C)C)cs3)cnc2N)ccc1C(N)=O`, the inhibition in [1] was found to be 12%; in assay [2] it was 43%; in assay [3], 93%; in [4], 77%; in assay [8], 51%; in assay [9] it was 6%. The inhibition in assay [10] was determined as 3%; in [11], 46%; in [14] it was 11%; in assay [15], 11%; in assay [16] it was 0%; in assay [17], 57%. Also, the values for the inhibition in assay [20] and in [21] were 25% and 19%, respectively. The IC50 in assay [5] stood at 110 nM; in [6], 2000 nM; in assay [7], 5820 nM; in assay [12], 800 nM; in assay [13], 8470 nM; in assay [18] it was 22 nM. Moreover, in assay [19], the IC50 was found to be 750 nM. The GI50 was 590 nM in the assay with HeLa, 4160 nM in the assay on MDA-MB-231 and 2170 nM in the assay on MCF7.

These data come from ChEMBL document CHEMBL2040736, “Design of potent and selective hybrid inhibitors of the mitotic kinase Nek2: structure-activity relationship, structural biology, and cellular activity” (J Med Chem, 2012).
